Data taken from ChEMBL document CHEMBL1201862, “PubChem BioAssay data set” (2004).
Values belong to the compound of their own block, whether it stands above or below them. Calls of active or inactive are those of the source.

Columns and labels:
Leucine aminopeptidase = target: T1, Leucine aminopeptidase (Plasmodium falciparum 3D7, UniProt Q8IL11); experiment: P. falciparum M17LAP inhibitors, primary screen, biochemical, fluorogenic H-Leu-NHMec substrate, 1536-well (AID 1619); format: functional
T1 sequence (Q8IL11 whole entry): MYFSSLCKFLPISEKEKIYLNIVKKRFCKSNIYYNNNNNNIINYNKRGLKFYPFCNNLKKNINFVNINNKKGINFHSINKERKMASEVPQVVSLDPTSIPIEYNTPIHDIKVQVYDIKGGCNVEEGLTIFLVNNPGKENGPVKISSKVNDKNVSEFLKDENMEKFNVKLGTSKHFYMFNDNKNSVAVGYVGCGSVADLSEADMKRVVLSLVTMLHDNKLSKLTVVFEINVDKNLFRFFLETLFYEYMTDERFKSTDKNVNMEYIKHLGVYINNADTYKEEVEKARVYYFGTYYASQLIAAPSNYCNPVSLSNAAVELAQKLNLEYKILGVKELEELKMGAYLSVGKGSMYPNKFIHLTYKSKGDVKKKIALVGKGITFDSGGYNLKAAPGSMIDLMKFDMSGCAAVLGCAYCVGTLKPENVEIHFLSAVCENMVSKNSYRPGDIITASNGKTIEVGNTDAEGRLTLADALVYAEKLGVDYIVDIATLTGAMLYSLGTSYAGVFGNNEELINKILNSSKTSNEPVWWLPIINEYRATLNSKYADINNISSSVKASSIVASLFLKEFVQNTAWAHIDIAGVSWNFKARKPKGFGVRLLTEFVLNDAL

[1] = target: T2, Rac GTPase-activating protein 1 (Homo sapiens, UniProt Q9H0H5); experiment: MgcRacGAP GTPase-activating activity inhibitors, confirmation, biochemical, ADP Hunter fluorescence, primary and confirmatory (AID 624330); format: functional
T2 sequence (Q9H0H5 whole entry): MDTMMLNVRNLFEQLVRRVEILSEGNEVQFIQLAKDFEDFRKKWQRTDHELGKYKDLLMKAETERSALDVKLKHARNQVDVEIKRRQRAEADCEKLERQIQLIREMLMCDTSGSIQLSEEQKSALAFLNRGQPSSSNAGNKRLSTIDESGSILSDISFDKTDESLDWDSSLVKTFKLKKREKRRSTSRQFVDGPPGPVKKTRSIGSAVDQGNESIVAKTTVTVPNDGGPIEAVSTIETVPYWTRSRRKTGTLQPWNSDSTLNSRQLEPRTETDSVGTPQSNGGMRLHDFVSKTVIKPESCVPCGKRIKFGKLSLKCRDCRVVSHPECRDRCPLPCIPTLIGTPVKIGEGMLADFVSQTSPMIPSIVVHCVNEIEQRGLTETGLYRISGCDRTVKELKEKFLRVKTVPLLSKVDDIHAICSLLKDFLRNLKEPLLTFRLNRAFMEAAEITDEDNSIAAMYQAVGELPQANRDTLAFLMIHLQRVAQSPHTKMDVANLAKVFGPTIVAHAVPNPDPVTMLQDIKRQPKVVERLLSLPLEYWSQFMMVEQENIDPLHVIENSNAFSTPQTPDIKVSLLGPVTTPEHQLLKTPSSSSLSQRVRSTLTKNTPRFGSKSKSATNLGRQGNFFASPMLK

[2] = target: T3, Histone-lysine N-methyltransferase NSD2 (Homo sapiens, UniProt O96028); format: biochemical
T3 sequence (O96028 whole entry): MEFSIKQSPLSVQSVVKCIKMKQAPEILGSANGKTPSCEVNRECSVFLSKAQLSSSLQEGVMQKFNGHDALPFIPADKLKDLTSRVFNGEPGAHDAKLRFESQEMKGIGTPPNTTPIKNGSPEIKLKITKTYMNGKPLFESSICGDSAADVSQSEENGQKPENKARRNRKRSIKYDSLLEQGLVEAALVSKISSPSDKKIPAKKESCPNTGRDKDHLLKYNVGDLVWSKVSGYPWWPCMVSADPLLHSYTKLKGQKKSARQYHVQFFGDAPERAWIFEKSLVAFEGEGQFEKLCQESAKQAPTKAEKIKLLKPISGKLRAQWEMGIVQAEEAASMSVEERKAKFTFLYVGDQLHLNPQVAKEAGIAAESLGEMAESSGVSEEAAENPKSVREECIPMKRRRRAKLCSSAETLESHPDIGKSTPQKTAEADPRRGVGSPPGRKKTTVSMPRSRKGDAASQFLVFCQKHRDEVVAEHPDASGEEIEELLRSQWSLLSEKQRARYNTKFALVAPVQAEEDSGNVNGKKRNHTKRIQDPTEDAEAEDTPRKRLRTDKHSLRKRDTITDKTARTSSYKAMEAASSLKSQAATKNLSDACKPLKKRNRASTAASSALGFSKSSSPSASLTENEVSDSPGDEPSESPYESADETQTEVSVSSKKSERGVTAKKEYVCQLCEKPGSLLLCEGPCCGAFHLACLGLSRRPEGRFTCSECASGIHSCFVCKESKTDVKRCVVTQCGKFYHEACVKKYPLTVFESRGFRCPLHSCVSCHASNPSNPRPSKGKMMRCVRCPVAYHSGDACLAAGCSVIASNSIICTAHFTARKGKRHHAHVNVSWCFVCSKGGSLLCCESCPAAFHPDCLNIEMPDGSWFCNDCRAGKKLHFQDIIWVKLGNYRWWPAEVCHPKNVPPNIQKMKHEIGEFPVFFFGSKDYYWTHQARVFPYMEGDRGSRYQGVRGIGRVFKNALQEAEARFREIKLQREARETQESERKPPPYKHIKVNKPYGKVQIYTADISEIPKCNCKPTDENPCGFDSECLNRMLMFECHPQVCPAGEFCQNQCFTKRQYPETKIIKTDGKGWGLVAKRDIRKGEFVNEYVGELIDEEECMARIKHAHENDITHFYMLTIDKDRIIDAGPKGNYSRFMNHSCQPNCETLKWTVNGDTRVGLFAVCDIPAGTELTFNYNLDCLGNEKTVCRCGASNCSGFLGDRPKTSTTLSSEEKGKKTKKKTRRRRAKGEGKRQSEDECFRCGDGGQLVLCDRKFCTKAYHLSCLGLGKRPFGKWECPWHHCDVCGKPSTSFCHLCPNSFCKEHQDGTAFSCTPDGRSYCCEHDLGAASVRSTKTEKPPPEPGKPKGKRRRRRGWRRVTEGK

Prothrombin = Prothrombin (Homo sapiens, UniProt P00734); experiment: Thrombin 1536 HTS Dose Response Confirmation. [Related pubchem assays: 1046 (Thrombin 1536 HTS; hits were confirmed in this assay)]; format: functional
[3] = NIH:OVCAR-3 ovarian cancer cell cytotoxicity, dose response, PAX8 inhibitor project, plate reader, dry powder samples (AID 743044); format: functional, cell-based
Paired box protein Pax-8 = Paired box protein Pax-8 (Homo sapiens, UniProt Q06710); experiment: inhibitors of PAX8-driven TPO luciferase reporter, dose response, RMG-I cells, cherry-pick (AID 687027); format: functional, cell-based;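 note: luciferase reporter driven by Pax8 target thyroperoxidase promoter measured by SteadyGlo luminescence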
Protein skinhead-1 = target: T4, Protein skinhead-1 (Caenorhabditis elegans, UniProt P34707); format: functional
T4 sequence (P34707 whole entry): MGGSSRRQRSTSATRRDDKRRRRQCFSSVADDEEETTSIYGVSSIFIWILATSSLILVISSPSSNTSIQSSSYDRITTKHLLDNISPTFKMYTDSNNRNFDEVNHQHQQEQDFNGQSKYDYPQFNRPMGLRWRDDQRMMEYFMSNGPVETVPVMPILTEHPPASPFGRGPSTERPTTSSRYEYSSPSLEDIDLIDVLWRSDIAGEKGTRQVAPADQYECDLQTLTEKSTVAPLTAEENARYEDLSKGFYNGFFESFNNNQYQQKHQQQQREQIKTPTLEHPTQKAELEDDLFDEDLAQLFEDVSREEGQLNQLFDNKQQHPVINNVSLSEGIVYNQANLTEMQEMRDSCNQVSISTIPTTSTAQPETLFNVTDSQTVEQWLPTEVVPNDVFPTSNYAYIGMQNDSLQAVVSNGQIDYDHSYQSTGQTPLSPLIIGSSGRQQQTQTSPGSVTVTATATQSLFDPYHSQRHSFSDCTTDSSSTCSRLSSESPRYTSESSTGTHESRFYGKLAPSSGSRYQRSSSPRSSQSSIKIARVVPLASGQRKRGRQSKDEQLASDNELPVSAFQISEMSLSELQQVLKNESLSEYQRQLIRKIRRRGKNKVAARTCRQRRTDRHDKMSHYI

[4] = LGR2 antagonists, dose response, cell-based, HEK293, CRE-luciferase reporter, cherry pick, set 2 (AID 743343); format: functional;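 note: transfected cells were stimulated with diluted bursicon conditioned medium after compound addition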
[5] = MC4R antagonists, dose response, counter-screen for LGR2 antagonist project, cell-based, plate reader, cherry pick (AID 743444); format: functional;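 note: transfected HEK 293 cells stimulated with alpha-MSH peptide; potency of inhibitors of the alpha-MSH evoked signal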
[6] = target: T5, Heat shock factor protein 1 (Mus musculus, UniProt P38532); experiment: inhibition of MG132-induced HSE-luciferase signal, confirmation, cell-based, NIH3T3, luminescence, dose retest (AID 2382); format: functional;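 note: NIH3T3 fibroblasts with HSF1-driven luciferase reporter stressed by proteasome inhibitor MG132; luminescence from HSF1-driven luciferase expression after 8 hours of MG132 stress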
T5 sequence (P38532 whole entry): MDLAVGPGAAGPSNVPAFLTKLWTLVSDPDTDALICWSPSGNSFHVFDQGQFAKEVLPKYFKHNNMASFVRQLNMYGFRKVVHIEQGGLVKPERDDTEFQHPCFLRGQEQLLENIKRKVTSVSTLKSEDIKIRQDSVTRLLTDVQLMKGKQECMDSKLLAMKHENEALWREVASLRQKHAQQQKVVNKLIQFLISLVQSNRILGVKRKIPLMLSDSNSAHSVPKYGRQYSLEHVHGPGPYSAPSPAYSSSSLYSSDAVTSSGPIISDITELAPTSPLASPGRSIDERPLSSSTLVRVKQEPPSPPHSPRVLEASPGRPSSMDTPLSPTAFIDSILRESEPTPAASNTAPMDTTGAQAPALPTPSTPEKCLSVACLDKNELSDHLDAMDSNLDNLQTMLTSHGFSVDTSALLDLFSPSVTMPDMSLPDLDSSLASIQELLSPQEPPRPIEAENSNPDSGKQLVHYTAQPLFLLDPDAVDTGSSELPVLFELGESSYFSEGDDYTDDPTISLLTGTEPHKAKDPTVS

Chain of Paired box protein Pax-8 (Q06710 whole entry): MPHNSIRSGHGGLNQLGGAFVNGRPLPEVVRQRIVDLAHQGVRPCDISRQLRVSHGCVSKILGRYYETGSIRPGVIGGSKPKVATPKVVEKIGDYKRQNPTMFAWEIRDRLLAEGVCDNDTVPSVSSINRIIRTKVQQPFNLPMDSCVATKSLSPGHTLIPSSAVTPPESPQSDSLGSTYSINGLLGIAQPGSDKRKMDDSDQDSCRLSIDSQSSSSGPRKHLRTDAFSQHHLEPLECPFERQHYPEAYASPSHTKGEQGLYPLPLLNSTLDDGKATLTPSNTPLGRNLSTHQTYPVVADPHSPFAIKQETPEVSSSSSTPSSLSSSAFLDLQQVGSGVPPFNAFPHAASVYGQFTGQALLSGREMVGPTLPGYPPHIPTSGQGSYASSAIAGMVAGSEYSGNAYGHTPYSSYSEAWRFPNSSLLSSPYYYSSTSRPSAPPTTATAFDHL

Compound: CCS(=O)(=O)C1=NN2C(=N)/C(=C\c3ccc(O)c(OC)c3)C(=O)N=C2S1
IC50 (Leucine aminopeptidase): 35.2 µM (active) | IC50 [1]: 37.2 µM (active)

Compound: O=C1C(=O)N(CCS(=O)(=O)c2ccccc2)c2ccc(F)cc21
AC50 [2]: 8.09 µM (active)

Compound: COc1ccccc1N1CCN(C(=O)CNC(=O)c2cn(-c3ccccc3OC)c(=O)c3ccccc23)CC1
IC50 (Prothrombin): 9.56 µM (active)

Compound: Cc1ccc(S(=O)(=O)N(C)C[C@@H]2Oc3cc(C#Cc4ccncc4)ccc3S(=O)(=O)N([C@H](C)CO)C[C@@H]2C)cc1
AC50 [3]: 22.4 µM (active) | AC50 (Paired box protein Pax-8): 6.03 µM (active)

Compound: CCCOP(=O)(c1ccc(N(C)C)cc1)C(O)c1ccncc1 (configuration not stated)
IC50 (Prothrombin): > 50 µM (not active)

Compound: C/C(=N\NC(=S)NC1CCCCC1)c1cccc(Br)c1
IC50 (Prothrombin): > 50 µM (inconclusive)

Compound: Cc1cc(C(=O)COC(=O)C2CC2)c(C)n1-c1ccc(F)cc1
AC50 [4]: 0.585 µM (active) | AC50 [5]: 0.334 µM (active) | EC50 [6]: 1.96 µM (active)

Continued, values first:

IC50 (Prothrombin): > 50 µM (not active)
Compound: Cc1ccc(C(=O)CSc2nc(C)cc(C)c2C(N)=O)cc1

AC50 [2]: > 20 µM (inactive)
Compound: COc1cccc(=O)c2c(C)n(-c3ccc(C(=O)O)cc3)c(C)c12

IC50 (Prothrombin): 0.16 µM (active) | IC50 (Protein skinhead-1): > 100 µM (inactive)
Compound: CSc1nc(-c2ccco2)nn1C(=O)c1ccc(C)cc1

IC50 (Leucine aminopeptidase): 11.3 µM (active)
Compound: CCCCCOc1ccc(NC(=O)CCCC(=O)O)cc1

IC50 (Leucine aminopeptidase): 18.6 µM (active)
Compound: Cc1ccc(C)c(NC(=O)C2CC=CCC2C(=O)O)c1 (configuration not stated)
